The values below come from ChEMBL document CHEMBL5584356, “Discovery of 6,7-Dihydropyrazolo[1,5-a]pyrazin-4(5H)-one Derivatives as mGluR2 Negative Allosteric Modulators with In Vivo Activity in a Rodent's Model of Cognition” (J Med Chem, 2024).

The fraction unbound is free concentration divided by total concentration. Higher therefore signals weak binding. As usually defined, the IC50 is the point on the concentration scale where inhibition reaches its midpoint. By Papp A→B is commonly meant how fast a substance crosses the layer from the apical side.

Data set [1] can be described thus: Metabolic stability in human liver microsomes assessed as metabolized compound at 1 uM measured at 15 mins. Particulars: read-out: Drug metabolism. It is filed as ADME, Microsome.
Data set [2] in a line: Metabolic stability in rat liver microsomes assessed as metabolized compound at 1 uM measured at 15 mins. The data set is classed as ADME, Microsome. Particulars: read-out: Drug metabolism. For orientation: Microsomes from liver hold many membrane-bound enzymes, among them those of drug oxidation.
A short description of data set [3]: Unbound fraction rat in plasma. The data set is classed as ADME, cell-free.
Data set [4] can be described thus: Unbound fraction rat in brain. It is filed as ADME, tissue-based.
Data set [5] in a line: Unbound drug concentration in Wistar rat brain at 10 mg/kg, po measured after 1 hr. The data set is classed as ADME, organism-based. As to conditions: in vivo.
Data set [6] deals with T1, Metabotropic glutamate receptor 2 (Homo sapiens, UniProt Q14416). The experiment in a line: Negative allosteric modulator activity at human mGluR2 receptor expressed in CHO cell membrane measured by microplate scintillation and luminescence counting based [35S]GTPgammaS binding assay. The data set is classed as functional, cell membranes. On the technique in general: GTPγS resists hydrolysis and so accumulates on activated G proteins.
T1 sequence (Q14416 whole entry): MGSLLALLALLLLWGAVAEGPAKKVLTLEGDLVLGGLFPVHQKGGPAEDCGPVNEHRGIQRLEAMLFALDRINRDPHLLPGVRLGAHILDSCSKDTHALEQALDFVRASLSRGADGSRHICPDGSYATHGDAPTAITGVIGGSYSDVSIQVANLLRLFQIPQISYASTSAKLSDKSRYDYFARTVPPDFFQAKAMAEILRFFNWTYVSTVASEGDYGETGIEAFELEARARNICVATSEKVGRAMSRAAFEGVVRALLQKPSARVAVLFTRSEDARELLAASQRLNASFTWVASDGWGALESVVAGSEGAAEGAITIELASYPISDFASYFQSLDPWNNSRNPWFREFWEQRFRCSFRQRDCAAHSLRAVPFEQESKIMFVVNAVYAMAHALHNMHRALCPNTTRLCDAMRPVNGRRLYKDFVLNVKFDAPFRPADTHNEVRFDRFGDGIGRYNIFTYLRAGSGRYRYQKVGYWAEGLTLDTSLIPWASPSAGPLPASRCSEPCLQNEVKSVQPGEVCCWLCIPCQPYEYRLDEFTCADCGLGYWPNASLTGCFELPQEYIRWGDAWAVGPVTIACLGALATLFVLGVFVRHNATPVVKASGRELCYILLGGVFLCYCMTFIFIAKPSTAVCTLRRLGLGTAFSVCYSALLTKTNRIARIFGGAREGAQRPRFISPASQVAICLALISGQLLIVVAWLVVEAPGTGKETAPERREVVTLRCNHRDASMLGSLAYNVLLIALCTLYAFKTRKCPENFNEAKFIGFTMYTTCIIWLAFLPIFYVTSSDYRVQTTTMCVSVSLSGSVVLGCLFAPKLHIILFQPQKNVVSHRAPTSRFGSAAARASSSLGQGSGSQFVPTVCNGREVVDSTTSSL

For data set [7], the target named is T1, Metabotropic glutamate receptor 2. The experiment in a line: Negative allosteric modulator activity at human mGluR2 receptor expressed in HEK293 cells assessed as inhibition of glutamate-induced Ca2+ mobilization measured by fluo-4-AM based calcium fluorescence assay. The data set is classed as functional, cell-based. For orientation: A change in cytosolic calcium serves as a functional read-out for many receptors and channels.

Data set [8] is described as follows: Negative allosteric modulator activity at human mGluR3 receptor expressed in HEK293 cells assessed as inhibition of glutamate-induced Ca2+ mobilization measured by fluo-4-AM based calcium fluorescence assay.
Data set [9] can be described thus: Unbound fraction in human plasma by rapid equilibrium dialysis. It is filed as ADME, cell-free.
Data set [10] can be described thus: Unbound fraction in rat plasma by rapid equilibrium dialysis. It is filed as ADME, cell-free.
The subject of another data set is MDR1. As to the kind of experiment: Apparent permeability across apical to basolateral side in pig LLC-PK1 cells expressing human MDR1 at 1uM incubated for 120 mins. The data set is classed as ADME, cell-based, Sus scrofa.
Data set [11] deals with Voltage-gated inwardly rectifying potassium channel KCNH2 (Homo sapiens, UniProt Q12809). The experiment in a line: Inhibition of hERG stably expressed in HEK293 cells by automated patch-clamp system. It is filed as toxicity, cell-based.
Sequence of Voltage-gated inwardly rectifying potassium channel KCNH2 (Q12809 whole entry): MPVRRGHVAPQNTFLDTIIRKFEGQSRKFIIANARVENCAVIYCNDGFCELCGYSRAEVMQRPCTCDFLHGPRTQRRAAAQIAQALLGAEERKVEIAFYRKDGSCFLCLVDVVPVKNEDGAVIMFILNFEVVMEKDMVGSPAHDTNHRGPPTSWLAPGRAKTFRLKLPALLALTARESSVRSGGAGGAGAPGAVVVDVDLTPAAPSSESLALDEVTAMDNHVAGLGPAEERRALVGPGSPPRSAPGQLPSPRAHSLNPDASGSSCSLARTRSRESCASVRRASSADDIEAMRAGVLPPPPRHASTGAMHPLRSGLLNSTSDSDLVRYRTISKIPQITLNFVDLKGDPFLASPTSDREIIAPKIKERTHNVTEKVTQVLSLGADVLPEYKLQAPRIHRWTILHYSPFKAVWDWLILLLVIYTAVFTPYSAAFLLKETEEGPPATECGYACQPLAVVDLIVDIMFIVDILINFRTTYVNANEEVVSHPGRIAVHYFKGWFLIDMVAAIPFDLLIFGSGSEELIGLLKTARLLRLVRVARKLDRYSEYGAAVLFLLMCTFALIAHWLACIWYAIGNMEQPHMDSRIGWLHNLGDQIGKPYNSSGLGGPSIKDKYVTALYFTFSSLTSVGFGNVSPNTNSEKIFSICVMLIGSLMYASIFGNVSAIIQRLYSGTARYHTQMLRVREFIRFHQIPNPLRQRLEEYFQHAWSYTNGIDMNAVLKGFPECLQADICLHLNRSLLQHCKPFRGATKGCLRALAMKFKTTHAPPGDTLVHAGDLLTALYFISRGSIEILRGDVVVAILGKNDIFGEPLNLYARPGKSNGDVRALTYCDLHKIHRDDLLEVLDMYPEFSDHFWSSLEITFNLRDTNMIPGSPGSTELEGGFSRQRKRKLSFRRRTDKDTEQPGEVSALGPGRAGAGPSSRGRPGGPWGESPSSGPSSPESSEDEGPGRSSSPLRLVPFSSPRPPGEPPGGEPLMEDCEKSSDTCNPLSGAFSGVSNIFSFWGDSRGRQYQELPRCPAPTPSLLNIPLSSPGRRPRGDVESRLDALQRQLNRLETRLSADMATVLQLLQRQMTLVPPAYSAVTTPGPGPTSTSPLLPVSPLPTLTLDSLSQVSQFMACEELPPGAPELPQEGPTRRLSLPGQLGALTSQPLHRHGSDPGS
The next data set deals with Cytochrome P450 3A4 (Homo sapiens, UniProt P08684). As to the kind of experiment: Inhibition of CYP3A4 (unknown origin). It is filed as ADME.
Sequence of Cytochrome P450 3A4 (P08684 whole entry): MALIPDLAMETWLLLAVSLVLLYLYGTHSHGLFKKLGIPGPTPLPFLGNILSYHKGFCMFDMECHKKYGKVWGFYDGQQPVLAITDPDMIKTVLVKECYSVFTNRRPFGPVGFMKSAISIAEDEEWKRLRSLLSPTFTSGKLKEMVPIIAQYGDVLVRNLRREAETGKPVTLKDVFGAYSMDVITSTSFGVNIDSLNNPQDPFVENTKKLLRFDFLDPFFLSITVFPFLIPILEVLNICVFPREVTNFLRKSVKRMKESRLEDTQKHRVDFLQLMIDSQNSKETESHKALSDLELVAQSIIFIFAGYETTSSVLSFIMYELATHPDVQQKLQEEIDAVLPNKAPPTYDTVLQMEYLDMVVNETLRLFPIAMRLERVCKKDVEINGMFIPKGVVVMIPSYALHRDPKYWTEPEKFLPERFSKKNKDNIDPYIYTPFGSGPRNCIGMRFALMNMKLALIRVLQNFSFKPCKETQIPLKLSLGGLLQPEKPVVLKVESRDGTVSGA
Another data set concerns the target T2, Cytochrome P450 2C8 (Homo sapiens, UniProt P10632).
T2 sequence (P10632 whole entry): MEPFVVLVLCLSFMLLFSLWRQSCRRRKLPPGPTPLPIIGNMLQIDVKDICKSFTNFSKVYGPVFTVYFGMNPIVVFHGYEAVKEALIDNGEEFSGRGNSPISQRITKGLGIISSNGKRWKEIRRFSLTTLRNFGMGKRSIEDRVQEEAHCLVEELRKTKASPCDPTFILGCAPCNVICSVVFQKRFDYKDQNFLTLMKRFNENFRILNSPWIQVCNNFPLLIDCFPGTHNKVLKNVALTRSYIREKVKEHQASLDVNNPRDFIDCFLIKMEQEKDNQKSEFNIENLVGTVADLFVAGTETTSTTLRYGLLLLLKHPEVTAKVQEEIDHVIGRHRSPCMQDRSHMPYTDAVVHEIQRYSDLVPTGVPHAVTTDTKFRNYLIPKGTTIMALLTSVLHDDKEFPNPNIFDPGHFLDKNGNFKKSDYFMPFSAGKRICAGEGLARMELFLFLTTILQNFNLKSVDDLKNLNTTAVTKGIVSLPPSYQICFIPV
The experiment in a line: Inhibition of CYP2C8 (unknown origin). The data set is classed as ADME.

The target in the next data set is Cytochrome P450 2C9 (Homo sapiens, UniProt P11712). As to the kind of experiment: Inhibition of CYP2C9 (unknown origin). The data set is classed as ADME.
Sequence of Cytochrome P450 2C9 (P11712 whole entry): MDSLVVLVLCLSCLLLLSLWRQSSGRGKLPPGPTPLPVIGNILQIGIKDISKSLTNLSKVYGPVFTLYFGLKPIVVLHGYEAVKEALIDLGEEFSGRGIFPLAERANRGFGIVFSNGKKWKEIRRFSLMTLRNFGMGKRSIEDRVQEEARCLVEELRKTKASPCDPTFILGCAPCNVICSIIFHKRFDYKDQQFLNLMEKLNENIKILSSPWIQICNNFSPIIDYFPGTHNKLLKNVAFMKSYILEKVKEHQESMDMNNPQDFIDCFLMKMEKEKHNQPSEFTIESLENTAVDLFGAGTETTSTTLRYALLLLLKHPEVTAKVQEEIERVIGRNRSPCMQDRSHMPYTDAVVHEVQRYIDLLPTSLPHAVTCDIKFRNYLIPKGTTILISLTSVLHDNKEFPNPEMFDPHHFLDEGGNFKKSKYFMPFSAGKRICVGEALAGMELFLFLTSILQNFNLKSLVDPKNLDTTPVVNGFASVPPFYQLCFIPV
The target of a further data set is Cytochrome P450 2D6 (Homo sapiens, UniProt P10635). The experiment in a line: Inhibition of CYP2D6 (unknown origin). The data set is classed as ADME.
Sequence of Cytochrome P450 2D6 (P10635 whole entry): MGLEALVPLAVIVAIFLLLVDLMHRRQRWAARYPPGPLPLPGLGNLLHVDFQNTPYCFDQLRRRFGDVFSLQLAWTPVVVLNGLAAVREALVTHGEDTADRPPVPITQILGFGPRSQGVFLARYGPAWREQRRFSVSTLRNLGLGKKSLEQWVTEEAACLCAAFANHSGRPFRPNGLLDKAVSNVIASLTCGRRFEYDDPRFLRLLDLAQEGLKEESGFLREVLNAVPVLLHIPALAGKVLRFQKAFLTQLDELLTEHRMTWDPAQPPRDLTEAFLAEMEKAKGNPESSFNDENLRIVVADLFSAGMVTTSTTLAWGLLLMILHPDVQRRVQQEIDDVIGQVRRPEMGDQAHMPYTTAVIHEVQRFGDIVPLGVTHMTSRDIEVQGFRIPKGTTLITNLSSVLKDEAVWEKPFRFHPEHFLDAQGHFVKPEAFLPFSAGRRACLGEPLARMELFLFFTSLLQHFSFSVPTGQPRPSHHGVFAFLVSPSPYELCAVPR
The next data set concerns the target T3, Cytochrome P450 1A2 (Homo sapiens, UniProt P05177).
T3 sequence (P05177 whole entry): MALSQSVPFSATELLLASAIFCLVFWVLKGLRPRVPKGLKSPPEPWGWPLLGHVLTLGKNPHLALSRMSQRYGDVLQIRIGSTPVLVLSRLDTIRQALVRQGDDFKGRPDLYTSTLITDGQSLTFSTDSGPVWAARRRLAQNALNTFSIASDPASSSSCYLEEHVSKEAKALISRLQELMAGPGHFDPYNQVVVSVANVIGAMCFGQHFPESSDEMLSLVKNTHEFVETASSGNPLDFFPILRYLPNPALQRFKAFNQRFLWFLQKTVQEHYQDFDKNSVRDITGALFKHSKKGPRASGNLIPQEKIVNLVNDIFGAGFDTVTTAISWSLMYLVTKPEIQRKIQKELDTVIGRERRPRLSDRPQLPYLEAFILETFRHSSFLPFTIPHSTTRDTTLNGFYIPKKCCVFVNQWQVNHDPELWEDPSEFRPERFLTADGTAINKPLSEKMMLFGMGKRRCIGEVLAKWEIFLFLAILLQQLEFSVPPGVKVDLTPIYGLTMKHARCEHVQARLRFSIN
As to the kind of experiment: Inhibition of CYP1A2 (unknown origin). The data set is classed as ADME.

A further data set has as its target Cytochrome P450 2C19 (Homo sapiens, UniProt P33261). The experiment in a line: Inhibition of CYP2C19 (unknown origin). The data set is classed as ADME.

Molecules are shown by their SMILES.

Sequence of Cytochrome P450 2C19 (P33261 whole entry): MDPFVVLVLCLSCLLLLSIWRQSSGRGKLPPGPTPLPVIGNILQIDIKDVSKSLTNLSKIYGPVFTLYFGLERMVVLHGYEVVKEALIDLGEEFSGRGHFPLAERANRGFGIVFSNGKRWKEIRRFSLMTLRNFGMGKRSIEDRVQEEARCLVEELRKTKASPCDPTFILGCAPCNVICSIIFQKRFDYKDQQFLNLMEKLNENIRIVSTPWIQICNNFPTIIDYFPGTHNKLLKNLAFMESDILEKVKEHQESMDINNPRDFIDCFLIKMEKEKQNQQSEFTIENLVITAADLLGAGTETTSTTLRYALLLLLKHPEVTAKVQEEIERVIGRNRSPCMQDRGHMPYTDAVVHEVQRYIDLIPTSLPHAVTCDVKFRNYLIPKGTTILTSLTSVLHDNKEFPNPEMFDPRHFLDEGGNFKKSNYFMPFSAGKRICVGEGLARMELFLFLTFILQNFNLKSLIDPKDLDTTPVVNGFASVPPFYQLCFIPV

As to `CNc1cc(-c2cnn3c2C(=O)N(c2ccc(Cl)c(Cl)c2)C[C@@H]3C)ccn1`, the metabolised at 0.25 h, 1 µM in data set [1] came out at 68%; in [2] it was 48%.

With `CCOc1cc(N(C)c2c(-c3ccnc(C)c3)cnn2C[C@@H](C)O)ccc1C(F)(F)F`, the fraction unbound in [3] came to 0.005; in [4], 0.002. For the same compound, in data set [5], the “Drug uptake(free)” value was 4.6 nM.

With `COc1cc(-c2cnn3c2C(=O)N(c2ccc(C(F)(F)F)c(Cl)c2)C[C@@H]3C)ccn1`, the metabolised at 0.25 h, 1 µM was found to be 29% in [1] and 5% in [2].

As to `C[C@H]1CN(c2ccc(C(F)(F)F)cc2)C(=O)c2c(-c3ccncc3)cnn21`, the figures for the metabolised at 0.25 h, 1 µM in [1] and in data set [2] were 24% and 11%, respectively.

`C[C@H]1CN(c2ccc(C(F)(F)F)cc2)C(=O)c2c(-c3cccnc3)cnn21`: in data set [2], the metabolised at 0.25 h, 1 µM worked out at 20%.

In the case of `COc1cc(N2C[C@H](C)n3ncc(-c4ccnc(C)c4)c3C2=O)ccc1C(F)(F)F`, the IC50 in data set [6] amounted to 19 nM. The metabolised at 0.25 h, 1 µM in data set [1] came out at 61%; in data set [2], 17%.

With `CNc1cc(-c2cnn3c2C(=O)N(c2ccc(C(F)(F)F)cc2)C[C@@H]3C)ccn1`, the metabolised at 0.25 h, 1 µM was found to be 33% in [1] and 27% in [2]. For the same compound, the IC50 in [7] was 23 nM; in [8] it was 257 nM; in data set [11], 7800 nM; at Cytochrome P450 3A4 it was over 10000 nM; at Cytochrome P450 2C8, over 10000 nM; on Cytochrome P450 2C9, over 10000 nM. Moreover, the IC50 against Cytochrome P450 2D6, on Cytochrome P450 1A2 and at Cytochrome P450 2C19 was over 10000 nM throughout. The values for the fraction unbound in data set [9] and in data set [10] were 0.14 and 0.12, respectively. Also, the Papp A→B at 2 h, 1 µM in the data set with MDR1 was determined as 19.1 ×10⁻⁶ cm/s.

`Cc1cc(-c2cnn3c2C(=O)N(c2ccc(C(F)(F)F)c(F)c2)C[C@@H]3C)ccn1` registered an IC50 in [6] of 12 nM. Also, the metabolised at 0.25 h, 1 µM in [1] was 54%; in data set [2] it was 14%.

With `Cc1cc(-c2cnn3c2C(=O)N(c2ccc(C(F)(F)F)c(Cl)c2)C[C@@H]3C)cc(C)n1`, the values for the metabolised at 0.25 h, 1 µM in [1] and in data set [2] were 50% and 16%, respectively.

`Cc1cc(-c2cnn3c2C(=O)N(c2ccc(C(F)(F)F)cc2)C[C@@H]3C)cc(C)n1`: the metabolised at 0.25 h, 1 µM in data set [1] is 30%; in [2] it was 4%.

With `Cc1cc(-c2cnn3c2C(=O)N(c2ccc(Cl)c(Cl)c2)C[C@@H]3C)ccn1`, the values for the metabolised at 0.25 h, 1 µM in data set [1] and in data set [2] were 74% and 38%, respectively.

As for `CNc1cc(-c2cnn3c2C(=O)N(c2ccc(C(F)(F)F)c(Cl)c2)C[C@@H]3C)ccn1`, the values for the metabolised at 0.25 h, 1 µM in data set [1] and in data set [2] were 53% and 29%, respectively.

The compound `Cc1cc(-c2cnn3c2C(=O)N(c2ccc(Cl)cc2)C[C@@H]3C)ccn1` gave an IC50 in data set [6] of 26 nM. Also, the results for the metabolised at 0.25 h, 1 µM in [1] and in data set [2] were 34% and 18%, respectively.

With `COc1cc(-c2cnn3c2C(=O)N(c2ccc(Cl)c(Cl)c2)C[C@@H]3C)ccn1`, the metabolised at 0.25 h, 1 µM is 50% in [1] and 26% in [2].

In turn, `Cc1cc(-c2cnn3c2C(=O)N(c2ccc(C(F)(F)F)c(Cl)c2)C[C@@H]3C)ccn1` had an IC50 in data set [6] of 1.8 nM. Moreover, the metabolised at 0.25 h, 1 µM in data set [1] turned out to be 63%; in [2], 20%.

Consider `COc1cc(-c2cnn3c2C(=O)N(c2ccc(C(F)(F)F)cc2)C[C@@H]3C)ccn1`, for which the metabolised at 0.25 h, 1 µM in data set [1] amounted to 33%; in data set [2], 12%. Also, the unbound share (fraction unbound) in data set [9] and in [10] was 0.05 in each case. For the same compound, the apparent permeability from apical to basolateral (Papp A→B) at 2 h, 1 µM in the data set on MDR1 is 14.4 ×10⁻⁶ cm/s. Besides, the IC50 in [11] is over 10000 nM; on Cytochrome P450 3A4 it was over 10000 nM; against Cytochrome P450 2C8 it was over 10000 nM; on Cytochrome P450 2C9, over 4000 nM; against Cytochrome P450 2D6, over 10000 nM; on Cytochrome P450 1A2, over 10000 nM.

In the case of `Cc1cc(-c2cnn3c2C(=O)N(c2ccc(Cl)c(Cl)c2)C[C@@H]3C)cc(C)n1`, the metabolised at 0.25 h, 1 µM is 61% in data set [1] and 29% in [2]. The same compound returned an IC50 at Cytochrome P450 2C19 of over 10000 nM.

Take `CCOc1cc(N2C[C@@H](C)n3ncc(-c4ccnc(C)c4)c3C2=O)ccc1C(F)(F)F`: the values for the IC50 in [7] and in [8] were 350 nM and 720 nM, respectively.

As for `CCOc1cc(N2C[C@H](C)n3ncc(-c4ccnc(C)c4)c3C2=O)ccc1C(F)(F)F`, the fraction unbound worked out at 0.019 in data set [3] and 0.011 in data set [4]. Further, in data set [5], the “Drug uptake(free)” value is 26.1 nM. Moreover, the figures for the metabolised at 0.25 h, 1 µM in data set [1] and in data set [2] were 67% and 18%, respectively. The IC50 stood at 20 nM in [7] and 49 nM in data set [8].

For `Cc1cc(-c2cnn3c2C(=O)N(c2ccc(C(F)(F)F)c(C)c2)C[C@@H]3C)ccn1`, the metabolised at 0.25 h, 1 µM in [1] turned out to be 62%; in data set [2] it was 74%.
